Results published in PubChem BioAssay AID1918933 (Molecular Pharmacology Branch, DTP, NCI, 2023).
“And” between values parts separate entries of the source, which are not always exact repeats. Equal entries are not always repeated.

System: 186277-243-T-J2-PDC complex spheroid viability
Assay: Anticancer human tumor 186277-243-T-J2-PDC patient-derived colon adenocarcinoma cell line growth inhibition
Conditions: for viability, T/C: stronger effect = lower value
From the text: Multicellular complex tumor spheroid response to LSD1 Inhibitor Iadademstat in combination with a variety of drugs and investigational agents in selected tumor cell lines
The current study was undertaken to assess response to LSD1 inhibitors in combination with standard-of-care drugs and investigational agents in solid tumor complex spheroid models as well as in the K-562 leukemia. Complex spheroids include a stromal component modeled by human endothelial cells (HUVEC) and fibroblasts modeled by human mesenchymal stem cells (MSCs). The concentration ranges selected for each drug and investigational agent were based upon clinically achievable concentrations if the clinical Cmax of the agent was known.
Compounds. The drugs and investigational agents used in this study are listed on Table 1. All of the agents used, including staurosporine (NSC755774) and gemcitabine (NSC613327), were obtained from the Developmental Therapeutics Program, NCI. FDA-approved anticancer drugs are available from the NCI at http://dtp.nci.nih.gov/branches/dscb/oncology_drugset_explanation.html. Drugs and investigational agents were >95% pure by proton nuclear magnetic resonance (NMR) and liquid chromatography/mass spectrometry (LC/MS). Stock solutions were prepared at 400x in DMSO, stored at -70 degrees C, and diluted in fresh medium prior to their use. The final concentration of DMSO in cell culture wells never exceeded 0.25% (v/v). The FDA-approved anticancer drug set is available from the Developmental Therapeutics Program at https://dtp.cancer.gov/organization/dscb/obtaining/available_plates.htm. All drugs and investigational agents were tested over a range starting from a high concentration at or near the clinical Cmax and decreasing in half-log increments. If the clinical Cmax for an agent had not been determined, the highest concentration tested was 10 microM.
Cell Lines. The patient-derived cancer cell (PDC) lines: 292921-168-R-J2-PDC, K24384-001-R-PDC, and 521955-158-R2-J5-PDC pancreatic carcinomas, 556581-035-R-J1 ovarian carcinoma, 324938-238-R-J1-PDC, 855422-203-R-J1-PDC and 883617-216-R-J1-PDC urothelial bladder carcinomas, 743489-274-T-PDC renal cell carcinoma, 138582-R-J1 Merkel cell tumor, K60290-347-R-J1 and K57222-313-R-J1-PDC glioblastomas, 653999-131-R-J2-PDC, LG0703-F948-PDC, and 349418-098-R-PDC non-small cell lung carcinomas, 885512-296-R-J2-PDC, 171881-019-R-J1-PDC breast carcinomas and 186277-243-T-J2-PDC and 233499-124-R-J2-PDC colon carcinomas were obtained from the NCI Patient-Derived Models Repository (PDMR, https://pdmr.cancer.gov). The established cell lines NCI/ADR-RES (RRID:CVCL_14520 and OVCAR-5 (RRID:CVCL_1628) ovarian carcinomas, 786-O (RRID:CVCL_1051) and A498 (RRID:CVCL_A498) renal cell carcinoma, NCI-H211 (ATCC, cat. CRL-5824; RRID:CVCL_1529), NCI-H196 (ATCC, cat. CRL-5823, RRID:CVCL_1509), SW 1271 (ATCC, cat. CRL-2177, RRID:CVCL_1716) and NCI-H1876 (ATCC, cat. CRL-5902, RRID:CVCL_1503) small cell lung carcinomas, MDA-MB-231 (RRID:CVCL_0062) and MDA-MB-468 (RRID:CVCL_0419)breast carcinomas (10-12). Pooled donor human umbilical vein endothelial cells (HUVEC, Lonza, cat. CC-2519) and human mesenchymal stem cells (hMSC, Lonza, cat. PT-2501) were purchased from Lonza (Walkersville, MD).
Cell Culture. All cells were maintained in an incubator at 37 degrees C and 5% CO2 with 95% humidity. The PDC lines were cultured according to standard operating procedures established by the NCI PDMR (https://pdmr.cancer.gov). Briefly all PDCs were thawed and cultured in Matrigel-coated flasks prepared with a working solution of 1X Ham's F-12 nutrient mix, without supplementation (Invitrogen, Waltham, MA, cat. 11765054), 100 U/mL penicillin-streptomycin (Invitrogen, cat. 15140122), and 2.5% Matrigel (Corning Inc., Corning, NY, cat. 354248) for the first three passages. […]

[1] = curve of first compound, second compound 0.1 µM
[2] = curve of first compound, second compound 0.316 µM
[3] = curve of first compound, second compound 1 µM
[4] = curve of first compound, second compound 3.16 µM
[5] = curve of first compound, second compound 10 µM
[6] = second compound 0.1 µM, first compound 0.00316 µM
[7] = second compound 0.1 µM, first compound 0.01 µM
[8] = second compound 0.1 µM, first compound 0.0316 µM
[9] = second compound 0.1 µM, first compound 0.1 µM
[10] = second compound 0.1 µM, first compound 0.316 µM
[11] = second compound 0.1 µM, first compound 1 µM
[12] = second compound 0.316 µM, first compound 0.00316 µM
[13] = second compound 0.316 µM, first compound 0.01 µM
[14] = second compound 0.316 µM, first compound 0.0316 µM
[15] = second compound 0.316 µM, first compound 0.1 µM
[16] = second compound 0.316 µM, first compound 0.316 µM
[17] = second compound 0.316 µM, first compound 1 µM
[18] = second compound 1 µM, first compound 0.00316 µM
[19] = second compound 1 µM, first compound 0.01 µM
[20] = second compound 1 µM, first compound 0.0316 µM
[21] = second compound 1 µM, first compound 0.1 µM
[22] = second compound 1 µM, first compound 0.316 µM
[23] = second compound 1 µM, first compound 1 µM
[24] = second compound 3.16 µM, first compound 0.00316 µM
[25] = second compound 3.16 µM, first compound 0.01 µM
[26] = second compound 3.16 µM, first compound 0.0316 µM
[27] = second compound 3.16 µM, first compound 0.1 µM
[28] = second compound 3.16 µM, first compound 0.316 µM
[29] = second compound 3.16 µM, first compound 1 µM
[30] = second compound 10 µM, first compound 0.00316 µM
[31] = second compound 10 µM, first compound 0.01 µM
[32] = second compound 10 µM, first compound 0.0316 µM
[33] = second compound 10 µM, first compound 0.1 µM
[34] = second compound 10 µM, first compound 0.316 µM
[35] = second compound 10 µM, first compound 1 µM
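Further: 7 day exposure to compounds.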
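Wherever viability, T/C is given: 100% = DMSO vehicle control viability.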

Work on `CC1COCCN1c1cc(-c2ccnn2C)c2ccnc(-c3ccn[nH]3)c2n1` (stereo not given) + NC1CCC(NC2CC2c2ccccc2)CC1 yielded an IC50 [1] of 6.56 nM, an IC50 [2] of 6.04 nM and an IC50 [3] of 5.63 nM. For the same compound, the IC50 [4] was 6.34 nM, the IC50 [5] was 5.91 nM and the viability, T/C [6] was 84.2%. It also gave a viability, T/C [7] of 30.2%, a viability, T/C [8] of 10.9% and a viability, T/C [9] of 9.28%. It also gave a viability, T/C [10] of 10%, a viability, T/C [11] of 11.5% and a viability, T/C [12] of 74.5%. For the same compound, the viability, T/C [13] was 30.9%, the viability, T/C [14] was 10.2% and the viability, T/C [15] was 8.48%. The viability, T/C [16] was 9.85%, the viability, T/C [17] was 11.8% and the viability, T/C [18] was 69.3%. For the same compound, the viability, T/C [19] was 30.8%, the viability, T/C [20] was 11.1% and the viability, T/C [21] was 8.48%. It also gave a viability, T/C [22] of 9.78%, a viability, T/C [23] of 12.1% and a viability, T/C [24] of 79.9%. It also gave a viability, T/C [25] of 30.4%, a viability, T/C [26] of 10.4% and a viability, T/C [27] of 8.64%. The viability, T/C [28] was 9.76%, the viability, T/C [29] was 12% and the viability, T/C [30] was 71.8%. It also gave a viability, T/C [31] of 31.6%, a viability, T/C [32] of 11% and a viability, T/C [33] of 9.23%. For the same compound, the viability, T/C [34] was 9.95% and the viability, T/C [35] was 11.8%.
Compound `Nc1ccn(C2OC(CO)C(O)C2(F)F)c(=O)n1` (stereo not given) + NC1CC1c1ccc(-c2cccc(O)c2)cc1 has an IC50 [1] of 2.41 nM, an IC50 [2] of 2.18 nM and an IC50 [3] of 2.52 nM. It also gave an IC50 [4] of 2.31 nM, an IC50 [5] of 2.34 nM and a viability, T/C (second compound 0.1 µM, first compound 0.000949 µM) of 112%. For the same compound, the viability, T/C (second compound 0.1 µM, first compound 0.003 µM) was 35.5%, the viability, T/C (second compound 0.1 µM, first compound 0.00949 µM) was 14.2% and the viability, T/C (second compound 0.1 µM, first compound 0.03 µM) was 11.6%. The viability, T/C (second compound 0.1 µM, first compound 0.0949 µM) was 12.2%, the viability, T/C (second compound 0.1 µM, first compound 0.3 µM) was 13.4% and the viability, T/C (second compound 0.316 µM, first compound 0.000949 µM) was 103%. The viability, T/C (second compound 0.316 µM, first compound 0.003 µM) was 29.9%, the viability, T/C (second compound 0.316 µM, first compound 0.00949 µM) was 14.5% and the viability, T/C (second compound 0.316 µM, first compound 0.03 µM) was 12%. For the same compound, the viability, T/C (second compound 0.316 µM, first compound 0.0949 µM) was 12.2%, the viability, T/C (second compound 0.316 µM, first compound 0.3 µM) was 12.8% and the viability, T/C (second compound 1 µM, first compound 0.000949 µM) was 116%. For the same compound, the viability, T/C (second compound 1 µM, first compound 0.003 µM) was 38.4%, the viability, T/C (second compound 1 µM, first compound 0.00949 µM) was 14.9% and the viability, T/C (second compound 1 µM, first compound 0.03 µM) was 12.2%. It also gave a viability, T/C (second compound 1 µM, first compound 0.0949 µM) of 11.9%, a viability, T/C (second compound 1 µM, first compound 0.3 µM) of 13.6% and a viability, T/C (second compound 3.16 µM, first compound 0.000949 µM) of 103%. The viability, T/C (second compound 3.16 µM, first compound 0.003 µM) was 34.3%, the viability, T/C (second compound 3.16 µM, first compound 0.00949 µM) was 15.8% and the viability, T/C (second compound 3.16 µM, first compound 0.03 µM) was 11.7%. It also gave a viability, T/C (second compound 3.16 µM, first compound 0.0949 µM) of 13.8%, a viability, T/C (second compound 3.16 µM, first compound 0.3 µM) of 13.4% and a viability, T/C (second compound 10 µM, first compound 0.000949 µM) of 98.2%. It also gave a viability, T/C (second compound 10 µM, first compound 0.003 µM) of 36.7%, a viability, T/C (second compound 10 µM, first compound 0.00949 µM) of 15.5% and a viability, T/C (second compound 10 µM, first compound 0.03 µM) of 11.2%. It also gave a viability, T/C (second compound 10 µM, first compound 0.0949 µM) of 12.7% and a viability, T/C (second compound 10 µM, first compound 0.3 µM) of 13.5%.
Compound `COc1cc(Nc2ncc3c(n2)-c2ccc(Cl)cc2C(c2c(F)cccc2OC)=NC3)ccc1C(=O)O` + NC1CCC(NC2CC2c2ccccc2)CC1 has an IC50 [1] of 13 nM, an IC50 [2] of 11.2 nM and an IC50 [3] of 10.4 nM. For the same compound, the IC50 [4] was 10.6 nM, the IC50 [5] was 13.7 nM and the viability, T/C [6] was 131%. The viability, T/C [7] was 59.2%, the viability, T/C [8] was 19.2% and the viability, T/C [9] was 0.36%. For the same compound, the viability, T/C [10] was 0.06%, the viability, T/C [11] was 0.02% and the viability, T/C [12] was 119%. It also gave a viability, T/C [13] of 54.1%, a viability, T/C [14] of 11.7% and a viability, T/C [15] of 0.19%. It also gave a viability, T/C [16] of 0.05%, a viability, T/C [17] of 0.01% and a viability, T/C [18] of 109%. The viability, T/C [19] was 51.1%, the viability, T/C [20] was 11.3% and the viability, T/C [21] was 0.14%. The viability, T/C [22] was 0.02%, the viability, T/C [23] was 0.01% and the viability, T/C [24] was 120%. The viability, T/C [25] was 51.8%, the viability, T/C [26] was 13.2% and the viability, T/C [27] was 0.12%. It also gave a viability, T/C [28] of 0.04%, a viability, T/C [29] of 0.01% and a viability, T/C [30] of 128%. It also gave a viability, T/C [31] of 58.6%, a viability, T/C [32] of 27.7% and a viability, T/C [33] of 0.81%. The viability, T/C [34] was 0.06% and the viability, T/C [35] was 0.02%.
`CC(C)CC(NC(=O)C(Cc1ccccc1)NC(=O)c1cnccn1)B(O)O` (stereo not given) was tested, and the viability, T/C (compound 0.000316 µM) was 96.1% and 94%, the viability, T/C (compound 0.01 µM) was 3.46% and 0.11% and the viability, T/C (compound 0.0316 µM) was 2.69% and 0.11%. The viability, T/C (compound 0.1 µM) was 3.82% and 0.17% and the IC50 (curve of compound) was 2.74 nM and 0.548 nM.
